Measurements taken from US10793568B2, “Hormone receptor modulators for treating metabolic conditions and disorders” (ARDELYX, INC., priority 2016, dated 2020).

Columns and labels:
[1] = target: ligand binding domain of human FXR (Homo sapiens (Human), UniProt Q96RI1); experiment: FXR ligand binding assay (LanthaScreen TR-FRET, SRC2-2 peptide recruitment); conditions: for Emax: extent of activation relative to GW4064, read-out: % Efficacy
Experimental: The affinity of FXR ligands for the ligand binding domain of FXR was determined using a commercially available human FXR ligand binding assay (LanthaScreen, Thermofisher Cat # PV4833). […] Binding of FXR ligands to the FXR ligand binding domain promotes binding of the fluorescein-labelled SRC2-2 peptide. This causes a FRET signal between the terbium-labelled anti-GST antibody and the fluorescein-labelled SRC peptide which are both bound to the FXR ligand binding domain.
Test compounds are dissolved in DMSO and a 3-fold serial dilution series is generated, then further diluted into assay buffer. The compounds are mixed with 5 nM GST-tagged FXR ligand binding domain, 5 nM Tb-labelled anti-GST antibody and 500 nM fluorescein-labelled SRC2-2 peptide in a pH7.4 buffer. The reaction is incubated at room temperature for 1 hour, then the FRET signal is measured as the ratio of the 520 nm/495 nm emission following excitation at 340 nm. The change in FRET signal is plotted against the test article concentration and fit to a 3-parameter logistical equation. The concentration required to produce 50% activation is expressed as pEC50 (−log EC50), and the extent of activation is expressed relative to GW4064 as % activation.

[2] = target: human Farnesoid X receptor ligand-binding domain/Gal4 DNA binding domain chimera (Homo sapiens (Human), UniProt Q96RI1); experiment: Cell-based assay of FXR activation (FXR-UAS-bla HEK 293T beta-lactamase reporter); conditions: cellular FXR beta-lactamase reporter assay; for Emax: HEK-293T, extent of activation relative to GW4064, read-out: % Efficacy; for EC50: FXR-UAS-bla HEK 293T cells, 16 h, pEC50 = -log EC50
Experimental: FXR activation was measured using a cell line and procedure obtained from Life Technologies (Cat # K1691). FXR-UAS-bla HEK 293T cells contain a human Farnesoid X receptor ligand-binding domain/Gal4 DNA binding domain chimera stably integrated into the CellSensor® UAS-bla HEK 293T cell line. The CellSensor® UAS-bla HEK 293T contains a beta-lactamase reporter gene under control of a UAS response element stably integrated into HEK 293T cells. Activation of FXR by bound ligands results in transcriptional activation of the beta-lactamase reporter gene, which is detected via assay of beta-lactamase activity.
Cells are harvested and diluted into assay medium containing phenol red-free DMEM supplemented with 2% Charcoal-stripped FBS, pyruvate, non-essential amino acids. Cells are then transferred to a 384 well assay plate. Test compounds are dissolved in DMSO and a 3-fold serial dilution series is generated, then further diluted into assay medium. Compounds in assay medium are added to cells in the 384 well plate and allowed to incubate 16 h at 37 C in the presence of 5% CO2.
A FRET-based […] is loaded into cells as its acetomethoxy ester. Intracellular esterases liberate free CCF4, a cephalosporin core linking 7-hydroxycoumarin to fluorescein. In the presence of beta-lactamase activity produced in the presence of FXR agonists, cleavage of CCF4 spatially separates the two dyes and disrupts FRET, so that exciting the coumarin at 409 nm now produces a blue fluorescence signal at 447 nm. The change in FRET signal is plotted against the test compound concentration and fit to a 3-parameter logistical equation. The concentration required to produce 50% activation is expressed as pEC50 (−log EC50), and the extent of activation is expressed relative to GW4064 as % activation.

[3] = -log EC50, concentration required to produce 50% activation

human Farnesoid X receptor ligand-binding domain/Gal4 DNA binding domain chimera, sequence (Q96RI1 262-486, stated change not applied): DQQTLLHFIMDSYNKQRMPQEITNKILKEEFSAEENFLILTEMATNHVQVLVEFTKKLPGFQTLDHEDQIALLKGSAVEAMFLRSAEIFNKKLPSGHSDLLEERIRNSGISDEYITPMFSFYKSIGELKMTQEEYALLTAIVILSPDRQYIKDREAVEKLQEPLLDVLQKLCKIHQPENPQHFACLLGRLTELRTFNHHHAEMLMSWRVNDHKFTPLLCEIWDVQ
human Farnesoid X receptor ligand-binding domain/Gal4 DNA binding domain chimera, sequence (P04386 1-147 partner): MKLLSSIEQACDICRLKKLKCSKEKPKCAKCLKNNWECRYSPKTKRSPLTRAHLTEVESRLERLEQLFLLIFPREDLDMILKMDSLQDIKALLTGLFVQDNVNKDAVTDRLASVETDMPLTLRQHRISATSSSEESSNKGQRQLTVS
ligand binding domain of human FXR, sequence (Q96RI1 262-486): as the sequence (Q96RI1 262-486, stated change not applied) above

| EC50 [1, 3] | Structure (SMILES) | pEC50 [1, 3] | Emax [1] | Emax [2] | EC50 [2] |
| --- | --- | --- | --- | --- | --- |
| – | O=C(O)c1cc(C2CC3(CCOCC3)C2)c2nc(N3C(=O)[C@@H]4C[C@H]3C[C@H]4OCc3c(-c4c(Cl)cccc4Cl)noc3C3CC3)sc2c1 [Compound I-300, 2-((1S,4R,5R)-5-((5-cyclopropyl-3-(2,6-dichlorophenyl)isoxazol-4-yl)methoxy)-3-oxo-2-azabicyclo[2.2.1]heptan-2-yl)-4-(7-oxaspiro[3.5]nonan-2-yl)benzo[d]thiazole-6-carboxylic acid] | 1 | 82% | 117% | 100 nM |
| – | CC(=O)NCCCCCCCCCCS(=O)(=O)NC(=O)c1ccc(N2C[C@@H]3C[C@H]2C[C@H]3OCc2c(-c3c(Cl)cccc3Cl)noc2C2CC2)c(F)c1 [Compound I-224, N-{10-[({4-[(1S,4S,5R)-5-{[5-cyclopropyl-3-(2,6-dichlorophenyl)-1,2-oxazol-4-yl]methoxy}-2-azabicyclo[2.2.1]heptan-2-yl]-3-fluorophenyl}formamido)sulfonyl]decyl}acetamide] | 8.1 | 155% | 104% | 2.51 nM |
| – | O=C(O)CCc1ccc(N2C[C@@H]3C[C@H]2C[C@H]3OCc2c(-c3c(Cl)cccc3Cl)noc2C2CC2)c(F)c1 [Compound I-154, 3-{4-[(1S,4S,5R)-5-{[5-cyclopropyl-3-(2,6-dichlorophenyl)-1,2-oxazol-4-yl]methoxy}-2-azabicyclo[2.2.1]heptan-2-yl]-3-fluorophenyl}propanoic Acid] | 8.6 | 158% | 105% | 0.501 nM |
| – | Cc1cccc(C)c1-c1noc(C2CC2)c1CO[C@@H]1C[C@@H]2C[C@H]1CN2c1nc2c(C)cc(C(=O)O)cc2s1 [Compound I-276, 2-[(1S,4S,5R)-5-{[5-cyclopropyl-3-(2,6-dimethylphenyl)-1,2-oxazol-4-yl]methoxy}-2-azabicyclo[2.2.1]heptan-2-yl]-4-methyl-1,3-benzothiazole-6-carboxylic Acid] | 8.2 | 124% | 114% | 3.98 nM |
| – | O=C(O)c1ccc([N+]2([O-])C[C@@H]3C[C@H]2C[C@H]3OCc2c(-c3c(Cl)cccc3Cl)noc2C2CC2)cc1 (stereo partly drawn) [Compound I-127, (1S,4S,5R)-2-(4-carboxyphenyl)-5-{[5-cyclopropyl-3-(2,6-dichlorophenyl)-1,2-oxazol-4-yl]methoxy}-2-azabicyclo[2.2.1]heptan-2-ium-2-olate] | 9.3 | 136% | 104% | 2.51 nM |
| – | C[C@H]1[C@H]2C[C@H](C[C@@H]2OCc2c(-c3c(Cl)cccc3Cl)noc2C2CC2)N1c1ccc(C(=O)O)nc1 [Compound I-368, 5-[(1R,3S,4R,5S)-5-[[5-cyclopropyl-3-(2,6-dichlorophenyl)-1,2-oxazol-4-yl]methoxy]-3-methyl-2-azabicyclo[2.2.1]heptan-2-yl]pyridine-2-carboxylic acid] | 5.8 | 22% | – | – |
| – | C[C@@H]1[C@@H]2C[C@@H](C[C@H]2OCc2c(-c3c(Cl)cccc3Cl)noc2C2CC2)N1c1ccc(C(=O)NS(=O)(=O)C2CCOCC2)nc1 [Compound I-371, 5-[(1S,3R,4S,5R)-5-[[5-cyclopropyl-3-(2,6-dichlorophenyl)-1,2-oxazol-4-yl]methoxy]-3-methyl-2-azabicyclo[2.2.1]heptan-2-yl]-N-(oxane-4-sulfonyl)pyridine-2-carboxamide] | 6.7 | 57% | – | – |
| – | O=C(O)c1cnc(N2C(=O)[C@@H]3C[C@H]2C[C@H]3OCc2c(-c3c(Cl)cccc3Cl)noc2C2CC2)cn1 [Compound I-324, 5-[(1S,4R,5R)-5-{[5-cyclopropyl-3-(2,6-dichlorophenyl)-1,2-oxazol-4-yl]methoxy}-3-oxo-2-azabicyclo[2.2.1]heptan-2-yl]pyrazine-2-carboxylic Acid] | 7.1 | 140% | – | – |
| – | O=C(NS(=O)(=O)C1CCOCC1)c1ccc(N2C(=O)[C@@H]3C[C@H]2C[C@H]3OCc2c(-c3c(Cl)cccc3Cl)noc2C2CC2)cn1 [Compound I-352, 5-((1S,4R,5R)-5-((5-cyclopropyl-3-(2,6-dichlorophenyl)isoxazol-4-yl)methoxy)-3-oxo-2-azabicyclo[2.2.1]heptan-2-yl)-N-((tetrahydro-2H-pyran-4-yl)sulfonyl)picolinamide] | 8 | 154% | – | – |
| – | O=C(NS(=O)(=O)[C@@H]1CCC[C@H]1O)c1ncc(N2C(=O)[C@@H]3C[C@H]2C[C@H]3OCc2c(-c3c(Cl)cccc3Cl)noc2C2CC2)cc1F [Compound I-349, 5-[(1S,4R,5R)-5-{[5-cyclopropyl-3-(2,6-dichlorophenyl)-1,2-oxazol-4-yl]methoxy}-3-oxo-2-azabicyclo[2.2.1]heptan-2-yl]-3-fluoro-N-{[(1R,2R)-2-hydroxycyclopentyl]sulfonyl}pyridine-2-carboxamide] | 8.2 | 171% | – | – |
| – | O=C(NS(=O)(=O)C1CCCC1)c1ccc(N2C(=O)[C@@H]3C[C@H]2C[C@H]3OCc2c(-c3c(Cl)cccc3Cl)noc2C2CC2)cn1 [Compound I-353, N-(cyclopentylsulfonyl)-5-((1S,4R,5R)-5-((5-cyclopropyl-3-(2,6-dichlorophenyl)isoxazol-4-yl)methoxy)-3-oxo-2-azabicyclo[2.2.1]heptan-2-yl)picolinamide] | 8.3 | 159% | – | – |
| – | CC[C@H]1[C@H]2C[C@H](C[C@@H]2OCc2c(-c3c(Cl)cccc3Cl)noc2C2CC2)N1c1ccc(C(=O)O)cc1 [Compound I-366, 4-[(1R,3S,4R,5S)-5-[[5-cyclopropyl-3-(2,6-dichlorophenyl)-1,2-oxazol-4-yl]methoxy]-3-ethyl-2-azabicyclo[2.2.1]heptan-2-yl]benzoic acid] | 6.2 | 56% | – | – |
| – | C[C@@H]1[C@@H]2C[C@@H](C[C@H]2OCc2c(-c3c(Cl)cccc3Cl)noc2C2CC2)N1c1ccc(C(=O)O)nc1 [Compound I-367, 5-[(1S,3R,4S,5R)-5-[[5-cyclopropyl-3-(2,6-dichlorophenyl)-1,2-oxazol-4-yl]methoxy]-3-methyl-2-azabicyclo[2.2.1]heptan-2-yl]pyridine-2-carboxylic Acid] | 6.4 | 61% | – | – |
| – | O=C(O)c1ccc(N2C(=O)[C@@H]3C[C@H]2C[C@H]3OCc2c(-c3c(Cl)cccc3Cl)noc2C2CC2)cn1 [Compound I-321, 5-[(1S,4R,5R)-5-{[5-cyclopropyl-3-(2,6-dichlorophenyl)-1,2-oxazol-4-yl]methoxy}-3-oxo-2-azabicyclo[2.2.1]heptan-2-yl]pyridine-2-carboxylic Acid] | 7.6 | 146% | – | – |
| – | C[C@H]1[C@H]2C[C@H](C[C@@H]2OCc2c(-c3c(Cl)cccc3Cl)noc2C2CC2)N1c1ccc(C(=O)NS(=O)(=O)C2CCOCC2)cn1 [Compound I-374, 6-[(1R,3S,4R,5S)-5-[[5-cyclopropyl-3-(2,6-dichlorophenyl)-1,2-oxazol-4-yl]methoxy]-3-methyl-2-azabicyclo[2.2.1]heptan-2-yl]-N-(oxane-4-sulfonyl)pyridine-3-carboxamide] | 6 | 48% | – | – |
| 0.631 nM | Cc1cc(C(=O)NO)ccc1N1C[C@@H]2C[C@H]1C[C@H]2OCc1c(-c2c(Cl)cccc2Cl)noc1C1CC1 [Compound I-139, 4-[(1S,4S,5R)-5-{[5-cyclopropyl-3-(2,6-dichlorophenyl)-1,2-oxazol-4-yl]methoxy}-2-azabicyclo[2.2.1]heptan-2-yl]-N-hydroxy-3-methylbenzamide] | – | 132% | – | – |
| – | CC1(C)CC(S(=O)(=O)NC(=O)c2ccc(N3C(=O)[C@@H]4C[C@H]3C[C@H]4OCc3c(-c4c(Cl)cccc4Cl)noc3C3CC3)cn2)CCO1 (stereo partly drawn) [Compound I-354, 5-((1S,4R,5R)-5-((5-cyclopropyl-3-(2,6-dichlorophenyl)isoxazol-4-yl)methoxy)-3-oxo-2-azabicyclo[2.2.1]heptan-2-yl)-N-((2,2-dimethyltetrahydro-2H-pyran-4-yl)sulfonyl)picolinamide] | 8.1 | 138% | – | – |
